Source: US20080153896A1, “Polymorphic Forms of an HMG-CoA Reductase Inhibitor and Uses Thereof” (priority 2006, published 2008)

Test: Stability (integrity) testing of amorphous and polymorphic form under storage conditions, RP-HPLC
Assay type: physicochemical
Design: key to Impurity RRT 0.738 / Impurity RRT 0.949 / Impurity RRT 1.050 / Impurity RRT 1.550 / Impurity RRT 0.136 / Impurity RRT 0.720 / Impurity RRT 0.706 / Impurity RRT 1.18 / Impurity RRT 1.826: % of total UV absorption (HPLC peak area); Impurity RRT 1.104 / Impurity RRT 1.698: unit not given beside the values
Details: for Total: in %
Method: The integrity of the different forms of the (3R, 5R)-7-[2-(4-fluorophenyl)-5-isopropyl-3-phenyl-4-[(4-hydroxymethylphenylamino)carbonyl]-pyrrol-1-yl]-3,5-dihydroxy-heptanoic acid, hemi calcium salt, was tested under different atmospheric conditions to determine the stability of the amorphous and polymorphic form of the drug in various storage environments. Reversed Phase-HPLC (RP-HPLC) was used to separate (3R, 5R)-7-[2-(4-fluorophenyl)-5-isopropyl-3-phenyl-4-[(4-hydroxymethylphenylamino)carbonyl]-pyrrol-1-yl]-3,5-dihydroxy-heptanoic acid, hemi calcium salt, from smaller molecules representing breakdown products as well as oxidized drug. The relative amount of the drug was reported as a percent of total absorption by UV. The total peak area of all UV absorption impurities was used to define total impurity of the drug. Impurities are defined by their relative retention time (RRT) compared to native drug. Samples were injected onto a C18 column using standard temperature, gradient and run-time conditions.
The results of this integrity testing for the amorphous form of (3R, 5R)-7-[2-(4-fluorophenyl)-5-isopropyl-3-phenyl-4-[(4-hydroxymethylphenylamino)carbonyl]-pyrrol-1-yl]-3,5-dihydroxy-heptanoic acid, hemi calcium salt, is shown in Table 5.
Three separate batches of polymorphic Form I of (3R, 5R)-7-[2-(4-fluorophenyl)-5-isopropyl-3-phenyl-4-[(4-hydroxymethylphenylamino)carbonyl]-pyrrol-1-yl]-3,5-dihydroxy-heptanoic acid, hemi calcium salt, were prepared and tested under the same atmospheric conditions described for the amorphous form.

CC(C)c1c(C(=O)Nc2ccc(CO)cc2)c(-c2ccccc2)c(-c2ccc(F)cc2)n1CC[C@@H](O)C[C@@H](O)CC(=O)[O-].CC(C)c1c(C(=O)Nc2ccc(CO)cc2)c(-c2ccccc2)c(-c2ccc(F)cc2)n1CC[C@@H](O)C[C@@H](O)CC(=O)[O-].[Ca+2] [PP00204, (3R, 5R)-7-[2-(4-fluorophenyl)-5-isopropyl-3-phenyl-4-[(4-hydroxymethylphenylamino)carbonyl]-pyrrol-1-yl]-3,5-dihydroxy-heptanoic acid, hemi calcium salt]
Impurity RRT 0.731 (5° C. 1 month): 0.030 | Impurity RRT 0.832 (5° C. 1 month): 0.034 | Impurity RRT 0.876 (5° C. 1 month): 0.150 | Impurity RRT 0.952 (5° C. 1 month): 0.040 | Impurity RRT 0.965 (5° C. 1 month): 0.532 | Impurity RRT 0.974 (5° C. 1 month): 0.052 | Impurity RRT 0.991 (5° C. 1 month): 0.022 | Impurity RRT 1.024 (5° C. 1 month): 0.459 | Impurity RRT 1.041 (5° C. 1 month): 0.585 | Total (5° C. 1 month): 1.904 | Impurity RRT 0.885 (5° C. 2 months): 0.177 | Impurity RRT 0.952 (5° C. 2 months): 0.048 | Impurity RRT 0.965 (5° C. 2 months): 0.501 | Impurity RRT 0.974 (5° C. 2 months): 0.067 | Impurity RRT 0.991 (5° C. 2 months): 0.029 | Impurity RRT 1.024 (5° C. 2 months): 0.508 | Impurity RRT 1.041 (5° C. 2 months): 0.604 | Total (5° C. 2 months): 1.934 | Impurity RRT 0.892 (5° C. 3 months): 0.161 | Impurity RRT 0.965 (5° C. 3 months): 0.550 | Impurity RRT 0.981 (5° C. 3 months): 0.058 | Impurity RRT 1.024 (5° C. 3 months): 0.506 | Impurity RRT 1.041 (5° C. 3 months): 0.635 | Total (5° C. 3 months): 1.91 | Impurity RRT 0.731 (5° C. 6 months): 0.037 | Impurity RRT 0.832 (5° C. 6 months): 0.028 | Impurity RRT 0.876 (5° C. 6 months): 0.014 | Impurity RRT 0.892 (5° C. 6 months): 0.016 | Impurity RRT 0.952 (5° C. 6 months): 0.024 | Impurity RRT 0.965 (5° C. 6 months): 0.552 | Impurity RRT 1.024 (5° C. 6 months): 0.582 | Impurity RRT 1.041 (5° C. 6 months): 0.592 | Impurity RRT 1.074 (5° C. 6 months): 0.028 | Total (5° C. 6 months): 1.873 | Impurity RRT 0.885 (25° C./60% RH 3 months): 0.145 | Impurity RRT 0.892 (25° C./60% RH 3 months): 0.212 | Impurity RRT 0.965 (25° C./60% RH 3 months): 0.542 | Impurity RRT 0.981 (25° C./60% RH 3 months): 0.058 | Impurity RRT 1.024 (25° C./60% RH 3 months): 0.518 | Impurity RRT 1.041 (25° C./60% RH 3 months): 0.648 | Total (25° C./60% RH 3 months): 2.123 | Impurity RRT 0.731 (25° C./60% RH 6 months): 0.031 | Impurity RRT 0.832 (25° C./60% RH 6 months): 0.029 | Impurity RRT 0.876 (25° C./60% RH 6 months): 0.133 | Impurity RRT 0.892 (25° C./60% RH 6 months): 0.124 | Impurity RRT 0.952 (25° C./60% RH 6 months): 0.037 | Impurity RRT 0.965 (25° C./60% RH 6 months): 0.546 | Impurity RRT 1.024 (25° C./60% RH 6 months): 0.618 | Impurity RRT 1.041 (25° C./60% RH 6 months): 0.593 | Impurity RRT 1.074 (25° C./60% RH 6 months): 0.068 | Impurity RRT 1.104 (25° C./60% RH 6 months): 0.037 | Total (25° C./60% RH 6 months): 2.216 | Impurity RRT 0.885 (30° C./55% RH 6 months): 0.187 | Impurity RRT 0.892 (30° C./55% RH 6 months): 0.168 | Impurity RRT 0.965 (30° C./55% RH 6 months): 0.699 | Impurity RRT 1.024 (30° C./55% RH 6 months): 0.693 | Impurity RRT 1.041 (30° C./55% RH 6 months): 0.777 | Impurity RRT 1.074 (30° C./55% RH 6 months): 0.103 | Impurity RRT 1.104 (30° C./55% RH 6 months): 0.032 | Total (30° C./55% RH 6 months): 2.659 | Impurity RRT 0.731 (30° C./65% RH 1 month): 0.038 | Impurity RRT 0.832 (30° C./65% RH 1 month): 0.037 | Impurity RRT 0.876 (30° C./65% RH 1 month): 0.145 | Impurity RRT 0.892 (30° C./65% RH 1 month): 0.038 | Impurity RRT 0.952 (30° C./65% RH 1 month): 0.042 | Impurity RRT 0.965 (30° C./65% RH 1 month): 0.512 | Impurity RRT 0.974 (30° C./65% RH 1 month): 0.054 | Impurity RRT 0.991 (30° C./65% RH 1 month): 0.018 | Impurity RRT 1.024 (30° C./65% RH 1 month): 0.464 | Impurity RRT 1.041 (30° C./65% RH 1 month): 0.587 | Impurity RRT 1.074 (30° C./65% RH 1 month): 0.021 | Total (30° C./65% RH 1 month): 1.956 | Impurity RRT 0.885 (30° C./65% RH 2 months): 0.154 | Impurity RRT 0.892 (30° C./65% RH 2 months): 0.119 | Impurity RRT 0.952 (30° C./65% RH 2 months): 0.050 | Impurity RRT 0.965 (30° C./65% RH 2 months): 0.505 | Impurity RRT 0.974 (30° C./65% RH 2 months): 0.042 | Impurity RRT 0.991 (30° C./65% RH 2 months): 0.022 | Impurity RRT 1.024 (30° C./65% RH 2 months): 0.524 | Impurity RRT 1.041 (30° C./65% RH 2 months): 0.611 | Total (30° C./65% RH 2 months): 2.027 | Impurity RRT 0.832 (30° C./65% RH 3 months): 0.046 | Impurity RRT 0.892 (30° C./65% RH 3 months): 0.184 | Impurity RRT 0.965 (30° C./65% RH 3 months): 0.542 | Impurity RRT 0.981 (30° C./65% RH 3 months): 0.057 | Impurity RRT 1.024 (30° C./65% RH 3 months): 0.516 | Impurity RRT 1.041 (30° C./65% RH 3 months): 0.638 | Total (30° C./65% RH 3 months): 1.983 | Impurity RRT 0.731 (40° C./75% RH 1 month): 0.039 | Impurity RRT 0.832 (40° C./75% RH 1 month): 0.034 | Impurity RRT 0.876 (40° C./75% RH 1 month): 0.125 | Impurity RRT 0.892 (40° C./75% RH 1 month): 0.055 | Impurity RRT 0.965 (40° C./75% RH 1 month): 0.526 | Impurity RRT 0.974 (40° C./75% RH 1 month): 0.071 | Impurity RRT 0.991 (40° C./75% RH 1 month): 0.024 | Impurity RRT 1.024 (40° C./75% RH 1 month): 0.464 | Impurity RRT 1.041 (40° C./75% RH 1 month): 0.565 | Impurity RRT 1.074 (40° C./75% RH 1 month): 0.032 | Total (40° C./75% RH 1 month): 1.955 | Impurity RRT 0.738 (40° C./75% RH 2 months): 0.042 | Impurity RRT 0.885 (40° C./75% RH 2 months): 0.159 | Impurity RRT 0.892 (40° C./75% RH 2 months): 0.127 | Impurity RRT 0.949 (40° C./75% RH 2 months): 0.063 | Impurity RRT 0.965 (40° C./75% RH 2 months): 0.547 | Impurity RRT 0.991 (40° C./75% RH 2 months): 0.027 | Impurity RRT 1.024 (40° C./75% RH 2 months): 0.543 | Impurity RRT 1.041 (40° C./75% RH 2 months): 0.622 | Impurity RRT 1.074 (40° C./75% RH 2 months): 0.077 | Total (40° C./75% RH 2 months): 2.207 | Impurity RRT 0.892 (40° C./75% RH 3 months): 0.189 | Impurity RRT 0.965 (40° C./75% RH 3 months): 0.548 | Impurity RRT 0.981 (40° C./75% RH 3 months): 0.065 | Impurity RRT 1.024 (40° C./75% RH 3 months): 0.515 | Impurity RRT 1.041 (40° C./75% RH 3 months): 0.632 | Impurity RRT 1.104 (40° C./75% RH 3 months): 0.074 | Total (40° C./75% RH 3 months): 2.023 | Impurity RRT 0.731 (40° C./75% RH 6 months): 0.031 | Impurity RRT 0.832 (40° C./75% RH 6 months): 0.031 | Impurity RRT 0.876 (40° C./75% RH 6 months): 0.152 | Impurity RRT 0.892 (40° C./75% RH 6 months): 0.19 | Impurity RRT 0.952 (40° C./75% RH 6 months): 0.022 | Impurity RRT 0.965 (40° C./75% RH 6 months): 0.497 | Impurity RRT 1.024 (40° C./75% RH 6 months): 0.460 | Impurity RRT 1.041 (40° C./75% RH 6 months): 0.573 | Impurity RRT 1.050 (40° C./75% RH 6 months): 0.094 | Impurity RRT 1.074 (40° C./75% RH 6 months): 0.025 | Impurity RRT 1.104 (40° C./75% RH 6 months): 0.037 | Total (40° C./75% RH 6 months): 2.112 | Impurity RRT 0.876 (Initial): 0.146 | Impurity RRT 0.965 (Initial): 0.560 | Impurity RRT 0.991 (Initial): 0.022 | Impurity RRT 1.024 (Initial): 0.464 | Impurity RRT 1.041 (Initial): 0.581 | Total (Initial): 1.703
